“Also recorded” adds a separate entry of the source.
Legend:
[1] = test system: LPS-induced TNFα production in human PBMC; test: LPS-induced TNFα production in primary human PBMC (hTNFα PBMC); assay type: cell-based
Protocol: (§1) • Human A2a and A2b receptor pharmacology: Chinese hamster ovary CHO-K1 cells stably expressing human A2a and A2b receptors were used to determine substances agonistic potency and intrinsic activity. […] The signal corresponding to adenosine at 100 μmol/L was used to define 100% intrinsic activity. • Human A3 receptor pharmacology: A3 receptor Gi coupling was measured by GTPγ ^35[S] filter assay at serial dilutions of compound using membranes from Perkin-Elmer. The signal corresponding to the maximal response of NECA at 100 μmol/L was set to 100% intrinsic activity. • Lipopolysaccharide (LPS)-induced TNFα production in primary human peripheral blood mononuclear cells (hTNFα PBMC) and rat mononuclears (rTNFα splenocytes): Human PBMC and rat mononuclear spleen cells were incubated with serial dilutions of compound and stimulated with LPS.
(§2) Procedures and assays were run in R10 buffer (RPMI 1640 Medium supplemented with GlutaMAX™ and HEPES (GIBCO-BRL), 10% fetal calf serum, penicillin and streptomycin (each 5000IU/ml)). Human PBMC were purified from heparinised blood by Ficoll separation (Ficoll, Amersham Pharmacia Biotech AB, Cat: 17-1440-03, Lot: 312170) and rat mononuclear cells were collected after rat spleen perfusion. Both cell preparations were followed by hypotonic lysis of residual erythrocytes. Serial dilutions of compounds were pre-incubated with 200 000 cells/well (96-well plate) for 45min in 37 °C (190µl). Cells were stimulated by 10µl LPS (final concentration 0.5ng/ml human and 150ng/ml rat; SIGMA Cat: L-4516, Lot: 104K4036) for 18h at 37 °C. TNFα release was measured by ELISA (^TmR&D Systems plates) according to the manufacturer’s instructions in cell free supernatant.

[2] = test system: LPS-induced TNFα production in rat splenocytes; test: LPS-induced TNFα production in rat mononuclear spleen cells (rTNFα splenocytes); assay type: cell-based; conditions: Splenocyte
Protocol: as §1, §2

[3] = Substance solubility in phosphate buffer; assay type: physicochemical; conditions: aqueous buffer, thermodynamic from solid; phosphate buffer pH 7.4, dry compound in solid state
Protocol: as §1
Solubility was measured in phosphate buffer at pH 7.4 using dry compounds in solid state.

[4] = test system: heart; test: Investigative rat toxicology study (heart histopathology); assay type: in vivo
Protocol: Rats were intratracheally administrated with compound 2 at 150µg/kg and terminated 24 hours after dosing. Rats in the repeated dose groups received compound 2 at dose level of 1 or 30µg/kg for 4 consecutive days and were terminated 24 hours after the last dose.
The animals were sacrificed by exsanguinations from the common carotid artery under isoflurane anesthesia. The external features were inspected and body weights recorded. The lung together with lower part of the trachea was excised from the thoracic cavity, weighed, and inflated with Formalin via the trachea. Other core organs (heart, kidneys, liver and spleen) were also macroscopically examined, weighed and fixed in buffered Formalin. The collected organs were trimmed and processed to paraffin blocks, sectioned (4µm) and stained with Hematoxylin Eosin (HE) for microscopic examination. Additional heart sections from each animal were collected for immunohistochemistry of Troponin T (see below) and for Masson's Trichrome stain.
The IHC was performed by using Ventanan Discovery XT automated slide processing system, according to the manufacturer’s instructions. In brief, after the antigen retrieval process (Std CC1), the Troponin T antibody (Thermo Scientific, MS-295-P1 diluted 1:50 in Antibody Diluent) was applied on the sections for 60 minutes, followed by incubation with rabbit monoclonal anti-mouse (Epitomics catalog no 3021-1) for 60 minutes and a polymer OmniMap-anti-rabbit HRP Multimer for 16 minutes. The reaction was visualized by using ChromoMap DAB kit. The slides were dehydrated in rising concentration of ethanol, cleared in xylene in an Automatic slide strainer (Sakura, US) and mounted manually with Mountex (00842, Histolab Products AB, Sweden).

[5] = biological target: A2a (Homo sapiens, UniProt P29274); test: Selectivity panel of 98 targets in binding assays (Ricerca): A2a; parameters: Ricerca (contract panel); conditions: 10 μmol/L of compound; data on AstraZeneca file
Protocol: (§3) The medicinal chemistry synthetic optimization focused on the position C2 and N6 (Fig.2) with the aim to discover a compound with high A2a potency, high selectivity, low lipophilicity (logD), and high solubility. […] Selectivity of compound 2 was tested across 98 targets in binding assays (www.ricerca.com). The only identified significant hits (i.e., >50% effect at 10 μmol/L of compound 2) were A2a (∼100%) and A3 (∼84%) data on AstraZeneca file.

[6] = biological target: T1, A3 (Homo sapiens, UniProt P0DMS8); test: Selectivity panel of 98 targets in binding assays (Ricerca): A3; parameters: Ricerca (contract panel); conditions: 10 μmol/L of compound; data on AstraZeneca file
T1 sequence (P0DMS8 1-318): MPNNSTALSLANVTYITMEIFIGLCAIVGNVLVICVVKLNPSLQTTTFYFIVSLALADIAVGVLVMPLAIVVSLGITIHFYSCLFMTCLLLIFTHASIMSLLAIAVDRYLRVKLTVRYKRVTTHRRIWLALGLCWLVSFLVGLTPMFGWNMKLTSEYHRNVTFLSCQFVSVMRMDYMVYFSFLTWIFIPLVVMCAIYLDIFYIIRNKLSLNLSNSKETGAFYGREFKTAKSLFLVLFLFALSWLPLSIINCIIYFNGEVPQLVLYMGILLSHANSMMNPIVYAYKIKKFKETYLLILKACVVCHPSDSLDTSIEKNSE
Protocol: as §3

[7] = biological target: T1, A3; test: Human A3 receptor pharmacology: GTPγ35[S] filter assay on membranes; assay type: biochemical; parameters: purchased Perkin Elmer ES-012-M400UA; conditions: average (SD)
Protocol: as §1
A3 receptor Gi coupling was measured by GTPγ ^35[S] filter assay using membrane from Perkin Elmer (ES-012-M400UA). Membranes (7.5μg/ml final concentration) were incubated with substances in serial dilutions (50mM Hepes, pH 7.4, 5mM MgCl2, 100mM NaCl, 0.01% BSA, 100μM DTT and 25μM GDP) including 1nM of GTPγ ^35[S] (Perkin Elmer - NEG030H) for 2h in room temperature in the assay plate (Corning – 3365). […] After adding 50µl scintillant/well, sealed plates were counted. […]

Chain of A2a (P29274 whole entry): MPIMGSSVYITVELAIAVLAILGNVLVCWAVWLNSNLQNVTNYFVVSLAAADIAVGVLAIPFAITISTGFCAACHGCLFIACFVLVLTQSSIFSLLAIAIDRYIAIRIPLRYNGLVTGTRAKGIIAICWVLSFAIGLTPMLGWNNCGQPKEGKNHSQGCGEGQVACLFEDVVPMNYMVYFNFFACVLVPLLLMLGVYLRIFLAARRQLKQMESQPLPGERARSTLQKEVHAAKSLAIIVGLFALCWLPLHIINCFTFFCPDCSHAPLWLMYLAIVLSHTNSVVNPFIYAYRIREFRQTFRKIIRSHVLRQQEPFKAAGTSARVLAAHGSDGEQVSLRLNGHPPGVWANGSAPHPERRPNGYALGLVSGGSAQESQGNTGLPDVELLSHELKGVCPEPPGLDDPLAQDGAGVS

Molecule CCNC(=O)[C@H]1O[C@@H](n2cnc3c(NC(CC)CC)nc(NCCNC(=O)Nc4cc[n+](C)cc4)nc32)[C@H](O)[C@@H]1O [Compound 2, (2S,3S,4R,5R)-N-ethyl-5-[6-(1-ethylpropylamino)-2-[2-[(1-methylpyridin-1-ium-4-yl)carbamoylamino]ethylamino]purin-9-yl]-3,4-dihydroxy-tetrahydrofuran-2-carboxamide] has an EC50 ([1]; Homo sapiens, PBMC, read-out: EC50, inhibition of LPS stimulated TNFα release in human PBMC) of 0.5 nM, an IC50 ([1]; LPS-stimulated TNFα release, human PBMC, average (SD)) of 0.5 nM and an Emax ([1]; LPS-stimulated TNFα release, human PBMC, average (SD), read-out: Human TNFα PBMC Intrinsic activity) of 72.4%. It also gave an EC50 ([2]; Rattus norvegicus, read-out: EC50, inhibition of LPS stimulated TNFα release in rat splenocytes) of 0.6 nM, an IC50 ([2]; LPS-stimulated TNFα release, rat splenocytes, average (SD)) of 0.6 nM and an Emax ([2]; LPS-stimulated TNFα release, rat splenocytes, average (SD), read-out: rTNFα splenocytes Intrinsic activity) of 57.4%. For the same molecule, the solubility [3] was over 1000 µM, the Heart changes ([4]; 1 μg/kg i.t. for 4 days) was “No changes were observed” and the “Multifocal scar tissue (dense granulation) in heart” value ([4]; 30 μg/kg i.t. for 4 days) was “three out of five; also recorded: multifocal dense scar tissue in the heart but no acute myocardial necrosis”. The “Dose level with histopathological heart lesions relative to efficacious dose in inflammatory rat lung model” value ([4]; 30 μg/kg vs 10 μg/kg i.t.) was “threefold”, the “Heart weight relative to body weight” value ([4]; single dose of 150 μg/kg or repeated doses of 30 μg/kg) was “slightly increased” and the Multifocal myocardial necrosis ([4]; single i.t. dose 150 μg/kg, one day after dose) was “four of five; also recorded: caused multifocal myocardial necrosis”. For the same molecule, the “Effect in binding assay, A2a” value [5] was about 100%, the “Effect in binding assay, A3” value [6] was about 84% and the EC50 [7] was 6600 nM.

Source: publication PMC4492750, “The discovery of a selective and potent A2a agonist with extended lung retention” (Pharmacology Research & Perspectives, 2015)
